Laboratory results from publication PMC8304761, “Development of an Androgen Receptor Inhibitor Targeting the N-Terminal Domain of Androgen Receptor for Treatment of Castration Resistant Prostate Cancer” (Cancers, 2021).
Like-named read-outs stand apart in the source and are kept apart here.

Tests used:
ARV7 = molecular target: T1, ARV7 (Homo sapiens, UniProt P10275)
T1 sequence (P10275 1-644 isoform P10275-3): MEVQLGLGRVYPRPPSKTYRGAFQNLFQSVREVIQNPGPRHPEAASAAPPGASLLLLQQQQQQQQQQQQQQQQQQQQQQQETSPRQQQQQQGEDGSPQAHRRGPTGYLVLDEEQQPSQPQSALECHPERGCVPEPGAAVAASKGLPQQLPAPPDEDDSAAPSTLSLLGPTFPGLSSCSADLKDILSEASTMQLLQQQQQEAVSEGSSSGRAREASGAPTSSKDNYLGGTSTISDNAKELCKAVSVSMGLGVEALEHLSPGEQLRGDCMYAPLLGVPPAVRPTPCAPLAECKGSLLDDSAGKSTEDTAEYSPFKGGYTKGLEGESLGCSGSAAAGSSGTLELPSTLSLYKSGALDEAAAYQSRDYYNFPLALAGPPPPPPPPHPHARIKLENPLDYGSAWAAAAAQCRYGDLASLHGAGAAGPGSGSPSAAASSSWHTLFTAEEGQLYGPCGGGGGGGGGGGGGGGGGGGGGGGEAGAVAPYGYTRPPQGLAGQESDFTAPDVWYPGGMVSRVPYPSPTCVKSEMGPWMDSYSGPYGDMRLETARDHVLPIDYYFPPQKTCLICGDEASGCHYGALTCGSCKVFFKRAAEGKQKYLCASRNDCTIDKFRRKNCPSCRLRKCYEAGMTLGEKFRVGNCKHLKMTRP
Description: The newly synthesized compounds were screened initially for their ability to inhibit ARV7 transcriptional activity using a cell based ARV7 transcriptional assay.

full-length AR = molecular target: T2, full-length AR (Homo sapiens, UniProt P10275, T878A); test: AR fluorescent (eGFP) reporter assay in LN-ARR2PB-eGFP LNCaP cells; type: cell-based
T2 construct: against full length AR using an AR-eGFP transcription assay in LNCaP cells; endogenous in cells; host or cells: LNCaP (LN-ARR2PB-eGFP reporter line for A1; parental LNCaP for RIME)
T2 sequence (P10275 1-920 T878A): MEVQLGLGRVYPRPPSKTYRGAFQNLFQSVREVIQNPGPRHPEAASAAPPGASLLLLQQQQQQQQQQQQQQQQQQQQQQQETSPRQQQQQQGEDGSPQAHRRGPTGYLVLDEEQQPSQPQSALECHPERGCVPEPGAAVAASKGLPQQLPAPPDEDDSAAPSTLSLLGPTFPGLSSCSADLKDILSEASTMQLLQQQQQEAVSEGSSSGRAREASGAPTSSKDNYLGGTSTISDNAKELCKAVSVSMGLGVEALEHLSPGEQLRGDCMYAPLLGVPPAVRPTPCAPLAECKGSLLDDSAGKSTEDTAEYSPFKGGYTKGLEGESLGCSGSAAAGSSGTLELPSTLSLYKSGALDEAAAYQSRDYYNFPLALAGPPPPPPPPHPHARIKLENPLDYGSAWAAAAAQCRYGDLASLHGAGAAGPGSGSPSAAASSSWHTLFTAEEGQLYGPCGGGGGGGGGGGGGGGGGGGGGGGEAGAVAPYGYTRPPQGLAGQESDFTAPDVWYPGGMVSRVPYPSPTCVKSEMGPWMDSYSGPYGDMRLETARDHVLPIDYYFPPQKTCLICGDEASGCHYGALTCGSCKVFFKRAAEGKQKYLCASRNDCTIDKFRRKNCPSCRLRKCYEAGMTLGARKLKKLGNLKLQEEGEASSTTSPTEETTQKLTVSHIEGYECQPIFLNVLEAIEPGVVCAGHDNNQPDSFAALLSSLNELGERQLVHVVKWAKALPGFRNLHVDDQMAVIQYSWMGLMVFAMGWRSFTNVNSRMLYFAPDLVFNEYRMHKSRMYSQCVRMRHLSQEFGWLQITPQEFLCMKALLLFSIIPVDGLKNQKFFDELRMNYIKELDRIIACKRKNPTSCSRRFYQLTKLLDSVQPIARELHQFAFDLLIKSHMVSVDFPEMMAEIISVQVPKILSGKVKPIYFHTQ
Method: AR fluorescent reporter assay: Stably transfected eGFP-expressing LNCaP human prostate cancer cells (LN-ARR2PB-eGFP) containing an androgen-responsive probasin-derived promoter (ARR2PB) were assayed, as previously described.
Next, we tested the activity of VPC-220010 against full length AR using an AR-eGFP transcription assay in LNCaP cells. […] PSA is an AR-regulated serine protease and is widely used as a biomarker for PCa.

[1] = test system: prostate specific antigen (PSA); test: Secreted PSA levels in LNCaP cells; type: cell-based; details: Homo sapiens, LNCaP; Table 1; read-out: PSA IC50
Description: Next, we tested the activity of VPC-220010 against full length AR using an AR-eGFP transcription assay in LNCaP cells. […] To further validate VPC-220010 as an AR inhibitor, we evaluated its ability to reduce the production of endogenous prostate specific antigen (PSA) in PCa cell lines. PSA is an AR-regulated serine protease and is widely used as a biomarker for PCa.

Microsomal stability = type: in vitro ADME, human
Description: However, further medicinal chemistry optimization is needed to make this scaffold stable enough to proceed to potential preclinical studies. […] Study of VPC-220057 scaffold could lead to a VPC-220010- and VPC-220057-derivative that combines their best potency and stability. The corresponding efforts are under way.

LNCaP cells = test: Proliferation assay (PrestoBlue), LNCaP; type: cell-based; details: Homo sapiens, 72 h, R1881, Figure 2C, read-out: IC50, viability of LNCaP cells
Method: (§1) Proliferation assay: LNCaP, 22Rv1 and PC3 cells were plated at 3000 cells per well in RPMI1640 containing 5% CSS in a 96-well plate, treated with 0.1 nm R1881 (a synthetic androgen) and test compounds (0–25 μM) for 72 h. Cell proliferation was determined using the PrestoBlue^TM cell proliferation assay following incubation with the compound […] over 72 h. In brief, 30 μL of the PrestoBlue^TM reagent was added to cells in each well of the 96-well plate containing 200 μL of media and incubated for 60 min at 37 °C in 5% CO2. The production of […]. Fluorescence measurement was read on a TECAN F200.
(§2) We then evaluated the effect of VPC-220010 on the proliferation of androgen-dependent LNCaP and ARV7-dependent 22Rv1 cells.

22Rv1 cells = test: Proliferation assay (PrestoBlue), 22Rv1; type: cell-based; details: Homo sapiens, 72 h, Figure 2D, read-out: IC50, viability of 22Rv1 cells
Method: as §1, §2

[2] = molecular target: T3, progesterone receptor (PR) (Homo sapiens, UniProt P06401); test: Luciferase reporter transcription assay in PC3 cells, PR; details: progesterone stimulated; 20 uM; Figure 4
T3 sequence (P06401 1-933): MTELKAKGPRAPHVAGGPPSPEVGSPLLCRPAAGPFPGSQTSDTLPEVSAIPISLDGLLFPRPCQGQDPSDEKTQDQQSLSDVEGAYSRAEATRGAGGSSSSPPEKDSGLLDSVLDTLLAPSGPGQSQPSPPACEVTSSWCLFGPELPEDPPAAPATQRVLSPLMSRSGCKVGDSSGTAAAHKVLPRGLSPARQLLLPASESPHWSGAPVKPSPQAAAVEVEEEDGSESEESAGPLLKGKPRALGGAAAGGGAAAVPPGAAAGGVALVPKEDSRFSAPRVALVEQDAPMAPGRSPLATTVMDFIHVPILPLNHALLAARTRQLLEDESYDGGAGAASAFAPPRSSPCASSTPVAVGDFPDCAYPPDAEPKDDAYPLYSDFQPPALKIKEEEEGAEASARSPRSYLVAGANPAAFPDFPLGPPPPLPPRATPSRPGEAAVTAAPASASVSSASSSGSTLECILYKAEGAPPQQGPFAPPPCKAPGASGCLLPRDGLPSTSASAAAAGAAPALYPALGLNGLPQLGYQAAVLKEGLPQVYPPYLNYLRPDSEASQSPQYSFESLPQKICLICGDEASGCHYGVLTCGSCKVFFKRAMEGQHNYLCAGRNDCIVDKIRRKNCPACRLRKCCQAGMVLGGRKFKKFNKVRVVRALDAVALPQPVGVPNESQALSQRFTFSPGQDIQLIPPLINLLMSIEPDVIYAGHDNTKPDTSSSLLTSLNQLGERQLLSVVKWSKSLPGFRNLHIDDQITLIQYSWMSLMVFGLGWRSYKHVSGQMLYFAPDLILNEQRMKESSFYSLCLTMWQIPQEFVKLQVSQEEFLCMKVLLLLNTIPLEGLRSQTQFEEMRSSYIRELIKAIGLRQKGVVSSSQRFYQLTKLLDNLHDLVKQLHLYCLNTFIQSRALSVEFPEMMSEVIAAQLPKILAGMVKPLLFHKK

[3] = molecular target: T4, glucocorticoid receptor (GR) (Homo sapiens, UniProt P04150); test: Luciferase reporter transcription assay in PC3 cells, GR; details: dexamethasone stimulated; 20 uM; Figure 4
T4 sequence (P04150 1-777): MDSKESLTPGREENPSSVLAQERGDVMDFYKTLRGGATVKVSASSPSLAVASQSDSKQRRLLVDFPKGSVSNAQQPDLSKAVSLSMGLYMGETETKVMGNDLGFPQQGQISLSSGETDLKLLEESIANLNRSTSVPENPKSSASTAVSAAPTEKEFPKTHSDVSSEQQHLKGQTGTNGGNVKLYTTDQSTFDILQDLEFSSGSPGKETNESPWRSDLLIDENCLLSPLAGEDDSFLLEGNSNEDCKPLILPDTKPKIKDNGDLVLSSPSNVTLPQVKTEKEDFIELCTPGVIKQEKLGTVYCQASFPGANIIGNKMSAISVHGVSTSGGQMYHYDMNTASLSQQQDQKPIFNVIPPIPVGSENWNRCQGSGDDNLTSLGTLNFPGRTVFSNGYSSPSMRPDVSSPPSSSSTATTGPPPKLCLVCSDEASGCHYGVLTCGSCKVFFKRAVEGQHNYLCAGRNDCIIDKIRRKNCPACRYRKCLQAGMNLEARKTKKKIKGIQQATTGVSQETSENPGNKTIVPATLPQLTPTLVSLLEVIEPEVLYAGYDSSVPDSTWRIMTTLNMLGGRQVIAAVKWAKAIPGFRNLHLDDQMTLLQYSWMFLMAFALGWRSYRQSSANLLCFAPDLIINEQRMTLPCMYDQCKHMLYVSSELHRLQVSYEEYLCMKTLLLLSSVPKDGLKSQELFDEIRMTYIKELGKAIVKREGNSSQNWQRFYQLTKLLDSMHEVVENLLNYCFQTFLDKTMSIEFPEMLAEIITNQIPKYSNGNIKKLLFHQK

Row | SMILES | IC50 (ARV7) [µM] | activity against ARV7 (in words) (ARV7) | IC50 (full-length AR; Table 1, read-out: eGFP IC50) [µM] | IC50 [1] [µM] | half-life (Microsomal stability; human, microsomes) [min] | also measured
1 | O[C@@H](CCl)COc1cccc2c(OC[C@@H](O)CCl)cccc12 [RR-220010] | 5 | no difference in potency | 0.7 | 0.7 | 11 | 
2 | O[C@H](CCl)COc1cccc2c(OC[C@H](O)CCl)cccc12 [SS-220010] | 6 | no difference in potency | 0.7 | 0.6 | 12 | 
3 | O=[N+]([O-])c1ccc(OCC(O)CCl)c2c([N+](=O)[O-])ccc(OCC(O)CCl)c12 (stereo not drawn) [VPC-220057] | 8 |  | 10 | 8 |  | fold less potent than VPC-220010 (full-length AR; Table 1): 10 fold; half-life (Microsomal stability; microsomal stability, human microsomes, read-out: T1/2): 462 min
4 | CC#C[C@]1(O)CC[C@H]2[C@@H]3CCC4=CC(=O)CCC4=C3[C@@H](c3ccc(N(C)C)cc3)C[C@@]21C [mifepristone] |  |  |  |  |  | PR transcriptional reporter activity [2]: inhibited; GR transcriptional reporter activity [3]: inhibited

Further lines, with some results ahead:

Row | IC50 (ARV7) [µM] | activity against ARV7 (in words) (ARV7) | IC50 (full-length AR; Table 1, read-out: eGFP IC50) [µM] | IC50 [1] [µM] | half-life (Microsomal stability; human, microsomes) [min] | SMILES | also measured
5 | 8.8 | active against this truncated variant |  |  |  | OC(CCl)CNc1cccc2c(NCC(O)CCl)cccc12 (stereo not drawn) [VPC-2055] | IC50 (LNCaP cells): 11.8 µM; IC50 (22Rv1 cells): > 50 µM; IC50 (full-length AR; LNCaP cells, read-out: IC50, full length AR, AR-eGFP transcription assay): 1 µM
6 | 4 |  | 3 | 4 |  | OC(CCl)COc1c(Br)ccc2c(OCC(O)CCl)c(Br)ccc12 (stereo not drawn) [VPC-220027] | 
7 | 3 |  | 0.4 | 0.4 |  | OC(CCl)COc1ccc(Br)c2c(OCC(O)CCl)ccc(Br)c12 (stereo not drawn) [VPC-220028] | 
8 | 3 |  | 5 | 5 |  | O=[N+]([O-])c1ccc2c(OCC(O)CCl)cccc2c1OCC(O)CCl (stereo not drawn) [VPC-220054] | 
9 | 3 |  | 0.5 | 0.5 | 36 | OC(CCl)COc1ccc(Br)c2c(OCC(O)CCl)cccc12 (stereo not drawn) [VPC-220062] | 
10 | 12 |  | 0.5 | 0.5 | 18 | OC(CCl)COc1ccc2cc(OCC(O)CCl)ccc2c1 (stereo not drawn) [VPC-220075] | 
